Where two headings read alike, the source gives them in different places.
What was measured:
[1] = test system: human retinal pigment epithelial RPE cells; experiment: Cell viability assay on normal cells; conditions: at a maximum concentration of 30 μM
[2] = test system: NCI 60 cell lines; experiment: NCI 60 cell five-dose assay; format: cell-based; conditions: read-out: TGI (μM)
[3] = S9 fraction metabolic stability assay; format: in vitro ADME, human; conditions: 0.02 mM substrate, NADPH, 37 °C, monitored over 2 h
[4] = test system: HCT116 human colon cancer cells; experiment: Cell growth inhibition / viability assay
[5] = test system: PARP1 cleavage in HCT116 cells; experiment: Western blot analysis of PARP1 cleavage; format: cell-based, human; conditions: HCT116 cells treated for 24 h
[6] = test system: acetyl–H3 and pan acetyl–lysine; experiment: Hyperacetylation assay by Western blot; format: cell-based, human; conditions: 5 and 10 μM
[7] = reported earlier; cited from earlier work
[8] = Homo sapiens, HCT-116, read-out: IC50 ± SD (μM) (n = 3) on HCT116 cell line

## COc1ccc(NC(=O)CCCCCCNC(=O)C(O)(O)C(F)(F)F)cc1 [Compound 55, N-(4-methoxyphenyl)-7-(3,3,3-trifluoro-2,2-dihydroxypropanamido)heptanamide]
[1]
  cell survival, RPE: more than 50%

## O=C(CCCCCCNC(=O)C(O)(O)C(F)(F)F)Nc1ncc(-c2ccccc2)s1 [Compound 58, N-(5-phenylthiazol-2-yl)-7-(3,3,3-trifluoro-2,2-dihydroxypropanamido)heptanamide]
[2]
  IC (TGI): 17 µM

## O=C(CCCCCCNC(=O)C(O)(O)C(F)(F)F)Nc1nccs1 [Compound 60, N-(thiazol-2-yl)-7-(3,3,3-trifluoro-2,2-dihydroxypropanamido) heptanamide]
[3]
  disappearance of the M+1 peak in S9 fraction: did not disappear over 2 h

## COc1cc(NC(=O)CCCCCCNC(=O)C(O)(O)C(F)(F)F)cc(OC)c1OC [Compound 71, 7-(3,3,3-trifluoro-2,2-dihydroxypropanamido)-N-(3,4,5-trimethoxyphenyl)heptanamide]
[4]; [8]
  IC50: 3.45 ± 0.36 µM

## O=C(CCCCCCNC(=O)C(O)(O)C(F)(F)F)Nc1nc2ccc(Br)cc2o1 [Compound 80, N-(6-bromobenzo[d]oxazol-2-yl)-7-(3,3,3-trifluoro-2,2-dihydroxypropanamido)heptanamide]
[4]; [8]
  IC50: 7.56 ± 0.73 µM

## COc1ccc2sc(NC(=O)CCCCCCNC(=O)C(O)(O)C(F)(F)F)nc2c1 [Compound 83, N-(5-methoxybenzo[d]thiazol-2-yl)-7-(3,3,3-trifluoro-2,2-dihydroxypropanamido)heptanamide]
[5]
  cleaved PARP1 (Western blot): Dose-dependent elevation

## COc1ccc(-c2cnc(NC(=O)CCCCCCNC(=O)C(O)(O)C(F)(F)F)s2)cc1 [Compound 84, N-(5-(4-methoxyphenyl)thiazol-2-yl)-7-(3,3,3-trifluoro-2,2-dihydroxypropanamido)heptanamide]
[6]
  levels of acetylated H3 (Western blot): increased levels
  levels of pan-acetyl-lysine (Western blot): increased levels
[5]
  cleaved PARP1 (Western blot): Absence of PARP1 cleavage

## O=C(CCCCCCNC(=O)C(O)(O)C(F)(F)F)Nc1ncc(-c2ccc(Br)cc2)s1 [Compound 85, N-(5-(4-bromophenyl)thiazol-2-yl)-7-(3,3,3-trifluoro-2,2-dihydroxypropanamido)heptanamide]
[5]
  cleaved PARP1 (Western blot): Dose-dependent elevation

## OC(O)(c1c(F)c(F)c(-n2cc(-c3ccccc3)nn2)c(F)c1F)C(F)(F)F [Compound 89]
[4]; zinc-binding group screening, maximum concentration of 100 μM
  HCT116 IC50: inactive

## O=C(CCCCCCC(=O)C(F)(F)F)Nc1ccccc1 [Compound 91]
[7]
  half-life: less than 30 min

## N-phenyl-6-(3,3,3-trifluoro-2,2-dihydroxypropanamido)hexanamide [Compound 10b]
[4]; read-out: IC50 (μM) HCT116, effect of linker length, linker length n = 3–7
  IC50: 54.4 ± 6.02 µM
